Assay results: PubChem BioAssay AID1918955 (Molecular Pharmacology Branch, DTP, NCI, 2023)

Test system: NCI/ADR-RES complex spheroid viability
Assay: Anticancer human tumor NCI/ADR-RES cell line growth inhibition;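 also: spheroids exposed to compounds for 7 days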;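 as to viability, T/C: 100% = DMSO vehicle treated spheroids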
Conditions: for IC50: curve of first compound; for viability, T/C: stronger effect = lower value
Procedure, shortened: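 Multicellular complex spheroids of tumor cells with human endothelial cells (HUVEC) and mesenchymal stem cells; the LSD1 inhibitor iadademstat was combined with standard-of-care or investigational agents. Top concentration at or near clinical Cmax, half-log dilutions; final DMSO ≤0.25%.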

[1] = second compound 0.1 µM, first compound 0.0316 µM
[2] = second compound 0.1 µM, first compound 0.1 µM
[3] = second compound 0.1 µM, first compound 0.316 µM
[4] = second compound 0.1 µM, first compound 1 µM
[5] = second compound 0.1 µM, first compound 3.16 µM
[6] = second compound 0.1 µM, first compound 10 µM
[7] = second compound 0.316 µM, first compound 0.0316 µM
[8] = second compound 0.316 µM, first compound 0.1 µM
[9] = second compound 0.316 µM, first compound 0.316 µM
[10] = second compound 0.316 µM, first compound 1 µM
[11] = second compound 0.316 µM, first compound 3.16 µM
[12] = second compound 0.316 µM, first compound 10 µM
[13] = second compound 1 µM, first compound 0.0316 µM
[14] = second compound 1 µM, first compound 0.1 µM
[15] = second compound 1 µM, first compound 0.316 µM
[16] = second compound 1 µM, first compound 1 µM
[17] = second compound 1 µM, first compound 3.16 µM
[18] = second compound 1 µM, first compound 10 µM
[19] = second compound 3.16 µM, first compound 0.0316 µM
[20] = second compound 3.16 µM, first compound 0.1 µM
[21] = second compound 3.16 µM, first compound 0.316 µM
[22] = second compound 3.16 µM, first compound 1 µM
[23] = second compound 3.16 µM, first compound 3.16 µM
[24] = second compound 3.16 µM, first compound 10 µM
[25] = second compound 10 µM, first compound 0.0316 µM
[26] = second compound 10 µM, first compound 0.1 µM
[27] = second compound 10 µM, first compound 0.316 µM
[28] = second compound 10 µM, first compound 1 µM
[29] = second compound 10 µM, first compound 3.16 µM
[30] = second compound 10 µM, first compound 10 µM
[31] = second compound 0.1 µM, first compound 0.00316 µM
[32] = second compound 0.1 µM, first compound 0.01 µM
[33] = second compound 0.316 µM, first compound 0.00316 µM
[34] = second compound 0.316 µM, first compound 0.01 µM
[35] = second compound 1 µM, first compound 0.00316 µM
[36] = second compound 1 µM, first compound 0.01 µM
[37] = second compound 3.16 µM, first compound 0.00316 µM
[38] = second compound 3.16 µM, first compound 0.01 µM
[39] = second compound 10 µM, first compound 0.00316 µM
[40] = second compound 10 µM, first compound 0.01 µM

Row | Structure (SMILES) | IC50 (second compound 0.1 µM) [µM] | IC50 (second compound 0.316 µM) [µM] | IC50 (second compound 1 µM) [µM] | IC50 (second compound 3.16 µM) [µM] | IC50 (second compound 10 µM) [µM] | viability, T/C [1] [%] | viability, T/C [2] [%] | viability, T/C [3] [%] | viability, T/C [4] [%] | viability, T/C [7] [%] | viability, T/C [8] [%] | viability, T/C [9] [%] | viability, T/C [10] [%] | viability, T/C [13] [%] | viability, T/C [14] [%] | viability, T/C [15] [%] | viability, T/C [16] [%] | viability, T/C [19] [%] | viability, T/C [20] [%] | viability, T/C [21] [%] | also measured
1 | CC(C)c1c(-c2ccccc2)nc2c(C#N)c[nH]n2c1=O + NC1CCC(NC2CC2c2ccccc2)CC1 | > 10 | > 10 | > 10 | > 10 | > 10 | 102 | 111 | 109 | 100 | 102 | 112 | 105 | 113 | 108 | 111 | 110 | 107 | 105 | 104 | 108 | viability, T/C [5]: 99.1%; viability, T/C [6]: 105%; viability, T/C [11]: 103%; viability, T/C [12]: 98.4%; viability, T/C [17]: 104%; viability, T/C [18]: 104%; viability, T/C [22]: 107%; viability, T/C [23]: 105%; viability, T/C [24]: 97.3%; viability, T/C [25]: 105%; viability, T/C [26]: 98.9%; viability, T/C [27]: 98.6%; viability, T/C [28]: 97.5%; viability, T/C [29]: 97.1%; viability, T/C [30]: 91.5%
2 | CC1COCCN1c1cc(-c2ccnn2C)c2ccnc(-c3ccn[nH]3)c2n1 (stereo not given) + NC1CCC(NC2CC2c2ccccc2)CC1 | 0.0155 | 0.0163 | 0.0165 | 0.0138 | 0.00744 | 17.4 | 4.62 | 5.9 | 8.55 | 16.8 | 2.98 | 2.91 | 2.82 | 18.8 | 3.17 | 7.14 | 10.6 | 10.3 | 2.4 | 6 | viability, T/C [31]: 99.8%; viability, T/C [32]: 70.3%; viability, T/C [33]: 101%; viability, T/C [34]: 74.4%; viability, T/C [35]: 102%; viability, T/C [36]: 74.6%; viability, T/C [37]: 92.1%; viability, T/C [38]: 65.6%; viability, T/C [22]: 2.76%; viability, T/C [39]: 83.9%; viability, T/C [40]: 38.2%; viability, T/C [25]: 11.9%; viability, T/C [26]: 2.97%; viability, T/C [27]: 1.89%; viability, T/C [28]: 2.07%
3 | COc1ccc([C@@H](O)c2cc(-c3ncnc4cc(N5CCOCC5)ccc34)c(F)cc2Cl)nn1 + NC1CCC(NC2CC2c2ccccc2)CC1 | 3.59 | 3.97 | 3.12 | 2.97 | 2.06 | 102 | 90.2 | 91.8 | 89.8 | 108 | 105 | 89.7 | 82.7 | 102 | 97.8 | 90.6 | 74.1 | 101 | 105 | 93.6 | viability, T/C [5]: 52.8%; viability, T/C [6]: 26.9%; viability, T/C [11]: 53.5%; viability, T/C [12]: 28.2%; viability, T/C [17]: 49.5%; viability, T/C [18]: 27.9%; viability, T/C [22]: 73.3%; viability, T/C [23]: 50%; viability, T/C [24]: 28.5%; viability, T/C [25]: 89.7%; viability, T/C [26]: 86.3%; viability, T/C [27]: 85.6%; viability, T/C [28]: 64.8%; viability, T/C [29]: 41.2%; viability, T/C [30]: 24.2%
4 | O=C(C=Cn1cnc(-c2cc(C(F)(F)F)cc(C(F)(F)F)c2)n1)NNc1cnccn1 + NC1CCC(NC2CC2c2ccccc2)CC1 | 0.0065 | 0.00582 | 0.00577 | 0.00494 | 0.00346 | 17.7 | 13.6 | 5.76 | 2.44 | 18.8 | 21.9 | 4.73 | 1.86 | 17.8 | 11.6 | 8.01 | 3.34 | 15.9 | 7.79 | 4.6 | viability, T/C [31]: 80.1%; viability, T/C [32]: 29.1%; viability, T/C [33]: 72.3%; viability, T/C [34]: 26.2%; viability, T/C [35]: 72.3%; viability, T/C [36]: 27.6%; viability, T/C [37]: 65%; viability, T/C [38]: 24.6%; viability, T/C [22]: 2.43%; viability, T/C [39]: 52.9%; viability, T/C [40]: 20.5%; viability, T/C [25]: 9.74%; viability, T/C [26]: 5.15%; viability, T/C [27]: 3.07%; viability, T/C [28]: 1.56%
